Test results taken from patent US9765105B2, “Macrolide compound” (Pulike Biological Engineering, Inc., priority 2013, dated 2017).

Tests used:
Assay in all cases: in vitro susceptibility, MIC by mini broth dilution
Type in all cases: cell-based
[1] = test system: Staphylococcus aureus CVCC26003; details: strain CVCC26003
Summary of the method: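 MICs were determined by mini broth dilution under NCCLS standards in CAMHB, using revived S. aureus CVCC26003 subcultured 20 h at 35° C. Compounds were two-fold serially diluted in DMSO across 11 wells, with duplicate rows. Bacterial suspension was diluted 1:200 in medium before inoculation.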

[2] = test system: Streptococcus equines CVCC556; details: strain CVCC556
Summary of the method: (§1)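 Bacteria were revived from −20° C stocks and streaked twice on solid medium, each time grown 20 h at 35° C. Compounds were double-diluted in DMSO across 11 wells and tested in two parallel rows. The bacterial suspension was diluted 1:200 with liquid medium before MIC determination by mini broth dilution.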

Haemophilus parasuis = test system: Haemophilus parasuis
Summary of the method: as §1

[3] = test system: Actinobacillus pleuropneumoniae CVCC262; details: strain CVCC262
Summary of the method: as §1

[4] = test system: Pasteurella multocida CVCC399; details: strain CVCC399
Summary of the method: as §1

Compound | MIC values, Staphylococcus aureus CVCC26003 [1] | MIC values, Streptococcus equines CVCC556 [2] | MIC values, Haemophilus parasuis (Haemophilus parasuis) | MIC values, Actinobacillus pleuropneumoniae CVCC262 [3] [ug/mi] | MIC values, Pasteurella multocida CVCC399 [4]
CC[C@H]1OC(=O)[C@H](C)[C@@H](O[C@H]2C[C@@](C)(OC)[C@](O)(CNC(C)CCc3ccccc3)[C@H](C)O2)[C@H](C)[C@@H](O[C@@H]2O[C@H](C)C[C@H](N(C)C)[C@H]2O)[C@](C)(O)C[C@@H](C)NC[C@H](C)[C@@H](O)[C@]1(C)O (stereo partly drawn) [syzx-34, (2R,3S,4R,5S,8R,10R,11R,12S,13S,14R)-13-[(2,6-dideoxy-3-C-methyl-3-O-methyl-4-C-[[(1-methyl-3-phenyl)propyl-amino]-methyl]-α-L-ribopyranosyl)oxy]-2-ethyl-3,4,10-trihydroxy-3,5,8,10,12,14-hexamethyl-11-[[3,4,6-trideoxy-3-(dimethylamino)-β-D-xylo-hexopyranosy]oxy]-1-oxa-7-azacyclopentadecan-15-one] | 8 ug/mi | 0.5 ug/mi | 4 ug/mi | 8 | 16 ug/mi
CC[C@H]1OC(=O)[C@H](C)[C@@H](O[C@H]2C[C@@](C)(OC)[C@](O)(CNCCCNCCc3ccc(S(C)(=O)=O)cc3)[C@H](C)O2)[C@H](C)[C@@H](O[C@@H]2O[C@H](C)C[C@H](N(C)C)[C@H]2O)[C@](C)(O)C[C@@H](C)NC[C@H](C)[C@@H](O)[C@]1(C)O [Syzx-61, (2R,3S,4R,5S,8R,10R,11R,12S,13S,14R)-13-[(2,6-dideoxy-3-C-methyl-3-O-methyl-4-C-[[(4-mesylphenylethylamino)propylamino]-methyl]-α-L-ribopyranosyl)oxy]-2-ethyl-3,4,10-trihydroxy-3,5,8,10,12,14-hexamethyl-11-[[3,4,6-trideoxy-3-(dimethylamino)-β-D-xylo-hexopyranosy]oxy]-1-oxa-7-azacyclopentadecan-15-one] | ≦0.25 ug/mi | 0.5 ug/mi | ≦0.25 ug/mi | 32 | 1 ug/mi
CC[C@H]1OC(=O)[C@H](C)[C@@H](O[C@H]2C[C@@](C)(OC)[C@](O)(CNCc3ccc(F)cc3F)[C@H](C)O2)[C@H](C)[C@@H](O[C@@H]2O[C@H](C)C[C@H](N(C)C)[C@H]2O)[C@](C)(O)C[C@@H](C)NC[C@H](C)[C@@H](O)[C@]1(C)O [syzx-31] | ≦0.25 ug/mi | ≦0.25 ug/mi | ≦0.25 ug/mi | 1 | ≦0.25 ug/mi
CCC1OC(=O)C(C)C(OC2CC(C)(OC)C(O)(CNCNCc3ccc(C=O)cc3)C(C)O2)C(C)C(OC2OC(C)CC(N(C)C)C2O)C(C)(O)CC(C)NCC(C)C(O)C1(C)O [syzx-39, (2R,3S,4R,5S,8R,10R,11R,12S,13S,14R)-13-[(2,6-dideoxy-3-C-methyl-3-O-methyl-4-C-[[[(4-formyl-benzyl-amino)-methyl]amino]-methyl]-α-L-ribopyranosyl)oxy]-2-ethyl-3,4,10-trihydroxy-3,5,8,10,12,14-hexamethyl-11-[[3,4,6-trideoxy-3-(dimethylamino)-β-D-xylo-hexopyranosy]oxy]-1-oxa-7-azacyclopentadecan-15-one] | 0.25 ug/mi | 0.5 ug/mi | 0.25 ug/mi | 0.25 | 0.5 ug/mi
CCCN1C[C@H](C)[C@@H](O)[C@](C)(O)[C@@H](CC)OC(=O)[C@H](C)[C@@H](O[C@H]2C[C@@](C)(OC)[C@](O)(CNCCc3c[nH]c4ccccc34)[C@H](C)O2)[C@H](C)[C@@H](O[C@@H]2O[C@H](C)C[C@H](N(C)C)[C@H]2O)[C@](C)(O)C[C@H]1C [syzx-174] | 4 ug/mi | 0.25 ug/mi | 2 ug/mi | 4 | 8 ug/mi
CCCN1C[C@H](C)[C@@H](O)[C@](C)(O)[C@@H](CC)OC(=O)[C@H](C)[C@@H](O[C@H]2C[C@@](C)(OC)[C@](O)(CNCc3cccc(OC)c3)[C@H](C)O2)[C@H](C)[C@@H](O[C@@H]2O[C@H](C)C[C@H](N(C)C)[C@H]2O)[C@](C)(O)C[C@H]1C [syzx-135] | 1 ug/mi | 0.5 ug/mi | 0.5 ug/mi | 1 | 2 ug/mi
CCC(NC[C@]1(O)[C@H](C)O[C@@H](O[C@H]2[C@H](C)[C@@H](O[C@@H]3O[C@H](C)C[C@H](N(C)C)[C@H]3O)[C@](C)(O)C[C@@H](C)NC[C@H](C)[C@@H](O)[C@](C)(O)[C@@H](CC)OC(=O)[C@@H]2C)C[C@@]1(C)OC)C(=O)O (stereo partly drawn) [syzx-41, (2R,3S,4R,5S,8R,10R,11R,12S,13S,14R)-13-[(2,6-dideoxy-3-C-methyl-3-O-methyl-4-C-[[butyrate-2-amino]-methyl]-α-L-ribopyranosyl)oxy]-2-ethyl-3,4,10-trihydroxy-3,5,8,10,12,14-hexamethyl-11-[[3,4,6-trideoxy-3-(dimethylamino)-β-D-xylo-hexopyranosy]oxy]-1-oxa-7-azacyclopentadecan-15-one] | 2 ug/mi | 0.5 ug/mi | 1 ug/mi | 1 | 4 ug/mi
CCCN1CC(C)C(O)C(C)(O)C(CC)OC(=O)C(C)C(OC2CC(C)(OC)C(O)(Cn3ccnn3)C(C)O2)C(C)C(OC2OC(C)CC(N(C)C)C2O)C(C)(O)CC1C (stereo not shown) [syzx-109] | 0.25 ug/mi | 0.25 ug/mi | 0.25 ug/mi | 0.25 | 1 ug/mi
CC[C@H]1OC(=O)[C@H](C)[C@@H](O[C@H]2C[C@@](C)(OC)[C@](O)(CNCCc3ccncc3)[C@H](C)O2)[C@H](C)[C@@H](O[C@@H]2O[C@H](C)C[C@H](N(C)C)[C@H]2O)[C@](C)(O)C[C@@H](C)NC[C@H](C)[C@@H](O)[C@]1(C)O [syzx-91, (2R,3S,4R,5S,8R,10R,11R,12S,13S,14R)-13-[(2,6-dideoxy-3-C-methyl-3-O-methyl-4-C-[(2-pyridin-4-yl-ethylamino)-methyl]-α-L-ribopyranosyl)oxy]-2-ethyl-3,4,10-trihydroxy-3,5,8,10,12,14-hexamethyl-11-[[3,4,6-trideoxy-3-(dimethylamino)-β-D-xylo-hexopyranosy]oxy]-1-oxa-7-azacyclopentadecan-15-one] | 4 ug/mi | 1 ug/mi | 2 ug/mi | 2 | 2 ug/mi

Next, values leading:

MIC values, Staphylococcus aureus CVCC26003 [1] | MIC values, Streptococcus equines CVCC556 [2] | MIC values, Haemophilus parasuis (Haemophilus parasuis) | MIC values, Actinobacillus pleuropneumoniae CVCC262 [3] [ug/mi] | MIC values, Pasteurella multocida CVCC399 [4] | Compound
1 ug/mi | 0.25 ug/mi | 1 ug/mi | 1 | 4 ug/mi | CCCN1C[C@H](C)[C@@H](O)[C@](C)(O)[C@@H](CC)OC(=O)[C@H](C)[C@@H](O[C@H]2C[C@@](C)(OC)[C@](O)(Cn3ccnc3C)[C@H](C)O2)[C@H](C)[C@@H](O[C@@H]2O[C@H](C)C[C@H](N(C)C)[C@H]2O)[C@](C)(O)C[C@H]1C [syzx-238]
0.25 ug/mi | 0.25 ug/mi | 0.25 ug/mi | 0.25 | 0.5 ug/mi | CCCN1C[C@H](C)[C@@H](O)[C@](C)(O)[C@@H](CC)OC(=O)[C@H](C)[C@@H](O[C@H]2C[C@@](C)(OC)[C@](O)(CNc3cccc(Br)c3)[C@H](C)O2)[C@H](C)[C@@H](O[C@@H]2O[C@H](C)C[C@H](N(C)C)[C@H]2O)[C@](C)(O)C[C@H]1C [syzx-223]
2 ug/mi | 0.5 ug/mi | 4 ug/mi | 4 | 8 ug/mi | CCCN1C[C@H](C)[C@@H](O)[C@](C)(O)[C@@H](CC)OC(=O)[C@H](C)[C@@H](O[C@H]2C[C@@](C)(OC)[C@](O)(CNc3ccc(Cl)cn3)[C@H](C)O2)[C@H](C)[C@@H](O[C@@H]2O[C@H](C)C[C@H](N(C)C)[C@H]2O)[C@](C)(O)C[C@H]1C [syzx-211]
4 ug/mi | 0.5 ug/mi | 4 ug/mi | 4 | 4 ug/mi | CCCN1C[C@H](C)[C@@H](O)[C@](C)(O)[C@@H](CC)OC(=O)[C@H](C)[C@@H](O[C@H]2C[C@@](C)(OC)[C@](O)(CNc3ccc(Cl)nc3)[C@H](C)O2)[C@H](C)[C@@H](O[C@@H]2O[C@H](C)C[C@H](N(C)C)[C@H]2O)[C@](C)(O)C[C@H]1C [syzx-208]
0.25 ug/mi | 0.25 ug/mi | 0.25 ug/mi | 0.5 | 1 ug/mi | CCCN1C[C@H](C)[C@@H](O)[C@](C)(O)[C@@H](CC)OC(=O)[C@H](C)[C@@H](O[C@H]2C[C@@](C)(OC)[C@](O)(CNc3ccc(Cl)cc3C)[C@H](C)O2)[C@H](C)[C@@H](O[C@@H]2O[C@H](C)C[C@H](N(C)C)[C@H]2O)[C@](C)(O)C[C@H]1C [syzx-197]
